Laboratory results from patent US9765074B2, “Inhibitors of the renal outer medullary potassium channel” (Merck Sharp & Dohme Corp., priority 2013, dated 2017).

molecular target: T1, hROMK (hKir1.1) (Homo sapiens, UniProt P48048); test: Thallium Flux Assay (ROMK channel functional thallium flux, FLIPR-Tetra); assay type: cell-based; details: HEK293 cells stably expressing hROMK (hKir1.1); 30 min compound incubation
T1 construct: expressed in transfected cells
T1 sequence (P48048 1-391): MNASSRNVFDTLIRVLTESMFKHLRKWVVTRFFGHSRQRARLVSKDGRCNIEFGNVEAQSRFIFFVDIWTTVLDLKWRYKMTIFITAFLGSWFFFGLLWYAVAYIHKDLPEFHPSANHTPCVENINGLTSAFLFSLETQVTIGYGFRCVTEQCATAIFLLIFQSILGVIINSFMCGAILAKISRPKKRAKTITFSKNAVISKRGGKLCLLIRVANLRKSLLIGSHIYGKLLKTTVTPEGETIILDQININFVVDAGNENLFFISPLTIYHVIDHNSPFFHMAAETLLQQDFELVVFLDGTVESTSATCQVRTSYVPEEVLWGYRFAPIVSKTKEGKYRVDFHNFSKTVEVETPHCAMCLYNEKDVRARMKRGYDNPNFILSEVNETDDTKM
Procedure, shortened: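 Thallium flux read by FluxOR fluorescence ([…]) for ~10 min after adding 3 mM Tl+/0.3 mM K+ final. Stable HEK-hKir1.1 cells were dye-loaded 90 min, exposed to compound 30 min at room temperature in ouabain/probenecid buffer; IC50 relative to a 3 μM control inhibitor.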

Compound	IC50
CC1=C(N2CCC3(CC4CCC(C3)N4C[C@H](O)c3ccc(-n4cnnn4)cn3)C2=O)COC1=O (stereo partly drawn) [Example 47, (1R,5R)-8-{(2S)-2-hydroxy-2-[5-(1H-tetrazol-1-yl)pyridin-2-yl]ethyl}-1′-(4-methyl-5-oxo-2,5-dihydrofuran-3-yl)-2′-oxospiro[8-azoniabicyclo[3.2.1]octane-3,3′-pyrrolidine]]	20 nM
CC1=C(N2CCC3(CC4CCC(C3)N4C[C@H](O)c3cnc(-n4cnnn4)cn3)C2=O)COC1=O (stereo partly drawn) [Example 48, (1R,5R)-8-{(2S)-2-hydroxy-2-[5-(1H-tetrazol-1-yl)pyrazin-2-yl]ethyl}-1′-(4-methyl-5-oxo-2,5-dihydrofuran-3-yl)-2′-oxospiro[8-azoniabicyclo[3.2.1]octane-3,3′-pyrrolidine]]	30 nM
COC1CN(C2=C(C)C(=O)OC2)C(=O)C12CC1CCC(C2)N1C[C@H](O)c1cnc(-n2cnnn2)cn1 (single isomer, unassigned) [Example 162]	40 nM
CC1=C(N2CCC3(CCN(C[C@H](O)c4cnc(-n5cnnn5)nc4)CC3)C2=O)COC1=O [Example 17, 8-{(2R)-2-hydroxy-2-[2-(1H-tetrazol-1-yl)pyrimidin-5-yl]ethyl}-2-(4-methyl-5-oxo-2,5-dihydrofuran-3-yl)-1-oxo-2-aza-8-azoniaspiro[4.5]decane]	30 nM
CC1=C(N2CCC3(CCN(C[C@@H](O)c4cnc(-n5cnnn5)c(F)c4)CC3)C2=O)COC1=O [Example 27, 8-{(2S)-2-[5-fluoro-6-(1H-tetrazol-1-yl)pyridin-3-yl]-2-hydroxyethyl}-2-(4-methyl-5-oxo-2,5-dihydrofuran-3-yl)-1-oxo-2-aza-8-azoniaspiro[4.5]decane]	20 nM
COC1CN(C2=C(C)C(=O)OC2)C(=O)C12CC1CCC(C2)N1C[C@H](O)c1ccc(-n2cnnn2)nc1 (single isomer, unassigned) [Example 159]	40 nM
CC1=C(N2CCC3(CC4CCC(C3)N4C[C@H](O)c3ccc(-n4cnnn4)nn3)C2=O)COC1=O (stereo partly drawn) [Example 52, (1R,5R)-8-{(2S)-2-hydroxy-2-[6-(1H-tetrazol-1-yl)pyridazin-3-yl]ethyl}-1′-(4-methyl-5-oxo-2,5-dihydrofuran-3-yl)-2′-oxospiro[8-azoniabicyclo[3.2.1]octane-3,3′-pyrrolidine]]	10 nM
CC1=C(N2CCC3(CCN(C[C@H](O)c4ccc(-n5cnnn5)cc4F)CC3)C2=O)COC1=O [Example 36, 8-{(2R)-2-[2-fluoro-4-(1H-tetrazol-1-yl)phenyl]-2-hydroxyethyl}-2-(4-methyl-5-oxo-2,5-dihydrofuran-3-yl)-1-oxo-2-aza-8-azoniaspiro[4.5]decane]	10 nM
CC1=C(N2CCC3(CCN(C[C@@H](O)c4ccc(-n5cnnn5)nc4C)CC3)C2=O)COC1=O [Example 21, 8-{(2S)-2-hydroxy-2-[2-methyl-6-(1H-tetrazol-1-yl)pyridin-3-yl]ethyl}-2-(4-methyl-5-oxo-2,5-dihydrofuran-3-yl)-1-oxo-2-aza-8-azoniaspiro[4.5]decane]	40 nM
Cc1nc(-n2cnnn2)ccc1[C@H](O)CN1CCC2(CC1)CCN(C1=CC(=O)OC1)C2=O [Example 4, 8-{(2S)-2-hydroxy-2-[2-methyl-6-(1H-tetrazol-1-yl)pyridin-3-yl]ethyl}-1-oxo-2-(5-oxo-2,5-dihydrofuran-3-yl)-2-aza-8-azoniaspiro[4.5]decane]	50 nM
CC1=C(N2C(=O)C3(CC2C)CC2CCC(C3)N2C[C@H](O)c2ccc(-n3cnnn3)nc2)COC1=O (single isomer, unassigned) [Example 133]	10 nM
COc1cc(-n2cnnn2)ccc1[C@@H](O)CN1CCC2(CC1)CCN(C1=CC(=O)OC1)C2=O [Example 15, 8-{(2R)-2-hydroxy-2-[2-methoxy-4-(1H-tetrazol-1-yl)phenyl]ethyl}-1-oxo-2-(5-oxo-2,5-dihydrofuran-3-yl)-2-aza-8-azoniaspiro[4.5]decane]	10 nM

Now from value to compound:

IC50	Compound
170 nM	CC1=C(N2CCC3(CCN(C[C@H](O)c4cccc(-n5cnnn5)n4)CC3)C2=O)COC1=O [Example 73, 8-{(2S)-2-hydroxy-2-[6-(1H-tetrazol-1-yl)pyridin-2-yl]ethyl}-2-(4-methyl-5-oxo-2,5-dihydrofuran-3-yl)-1-oxo-2-aza-8-azoniaspiro[4.5]decane]
10 nM	C[C@@H]1CC2(CCN(C[C@@H](O)c3ccc(-n4cnnn4)nc3)CC2)C(=O)N1C1=CC(=O)OC1 [Example 84, (3R)-8-{(2S)-2-hydroxy-2-[6-(1H-tetrazol-1-yl)pyridin-3-yl]ethyl}-3-methyl-1-oxo-2-(5-oxo-2,5-dihydrofuran-3-yl)-2-aza-8-azoniaspiro[4.5]decane]
120 nM	COC1CN(CCc2ccc(-n3cnnn3)nn2)CCC12CCN(C1=C(C)C(=O)OC1)C2=O (single isomer, unassigned) [Example 258, 6-methoxy-2-(4-methyl-5-oxo-2,5-dihydrofuran-3-yl)-8-{2-[6-(1H-tetrazol-1-yl)pyridazin-3-yl]ethyl}-2,8-diazaspiro[4.5]decan-1-one]
40 nM	CC1=C(N2CCC3(CCN(C[C@@H](O)c4cnc(-n5cnnn5)nc4C)CC3)C2=O)COC1=O [Example 86, 8-{(2S)-2-hydroxy-2-[4-methyl-2-(1H-tetrazol-1-yl)pyrimidin-5-yl]ethyl}-2-(4-methyl-5-oxo-2,5-dihydrofuran-3-yl)-1-oxo-2-aza-8-azoniaspiro[4.5]decane]
10 nM	CC1=C(N2C(=O)C3(CCN(C[C@@H](O)c4ccc(-n5cnnn5)cc4C)CC3)CC2C)COC1=O (single isomer, unassigned) [Example 140]
10 nM	CC1=C(N2CCC3(CCN(C[C@@H](O)c4ccc(-n5cnnn5)cc4C)CC3)C2=O)COC1=O [Example 39, 8-{(2S)-2-hydroxy-2-[2-methyl-4-(1H-tetrazol-1-yl)phenyl]ethyl}-2-(4-methyl-5-oxo-2,5-dihydrofuran-3-yl)-1-oxo-2-aza-8-azoniaspiro[4.5]decane]
40 nM	COC1CN(C2=CC(=O)OC2)C(=O)C12CCN(C[C@H](O)c1ccc(-n3cnnn3)nc1)CC2 (mixture of isomers) [Example 207, 8-((R)-2-(6-(1H-tetrazol-1-yl)pyridin-3-yl)-2-hydroxyethyl)-4-methoxy-2-(5-oxo-2,5-dihydrofuran-3-yl)-2,8-diazaspiro[4.5]decan-1-one]
20 nM	CC1=C(N2C=CC3(CCN(CCc4nnc(-n5cnnn5)cc4C)CC3)C2=O)COC1=O [Example 248, 2-(4-methyl-5-oxo-2,5-dihydrofuran-3-yl)-8-{2-[4-methyl-6-(1H-tetrazol-1-yl)pyridazin-3-yl]ethyl}-1-oxo-2-aza-8-azoniaspiro[4.5]dec-3-ene]
80 nM	CC1=C(N2CCC3(CCN(CCc4cnc(-n5cnnn5)cc4CO)CC3)C2=O)COC1=O [Example 250, 8-{2-[4-(hydroxymethyl)-6-(1H-tetrazol-1-yl)pyridin-3-yl]ethyl}-2-(4-methyl-5-oxo-2,5-dihydrofuran-3-yl)-1-oxo-2-aza-8-azoniaspiro[4.5]decane]
40 nM	CC1=CN(C2=C(C)C(=O)OC2)C(=O)C12CCN(C[C@H](O)c1ccc(-n3cnnn3)nc1)CC2 [Example 175, 8-{(2R)-2-hydroxy-2-[6-(1H-tetrazol-1-yl)pyridin-3-yl]ethyl}-4-methyl-2-(4-methyl-5-oxo-2,5-dihydrofuran-3-yl)-1-oxo-2-aza-8-azoniaspiro[4.5]dec-3-ene]
